Test results reported in ChEMBL document CHEMBL1129814, “Synthesis of thiophenes and thieno[3,2-c]pyran-4-ones as antileishmanial and antifungal agents” (1997).
Values after ≈ are worked out from the molar mass of the structure shown.

Experiments:
Aspergillus fumigatus = experiment: Antifungal activity against Aspergillus fumigatus (AF-27); assay type: functional
Candida albicans = experiment: Antifungal activity against Candida albicans (SKF); assay type: functional
Cryptococcus neoformans = experiment: Antifungal activity against Cryptococcus neoformans (CN-17); assay type: functional
Leishmania donovani = experiment: An vitro anti-leishmanial activity against Leishmania donovani promastigotes (25 uM); assay type: functional
Sporothrix schenckii = experiment: In vitro for antifungal activity against Sporothrix schenck ii (SS-1); assay type: functional
Trichophyton benhamiae = experiment: In vitro for antifungal activity against Trichophyton mentagrophytes (A-280); assay type: functional, Arthroderma benhamiae

Row | MIC (Aspergillus fumigatus) | MIC (Candida albicans) | MIC (Cryptococcus neoformans) | MIC (Sporothrix schenckii) | MIC (Trichophyton benhamiae) | SMILES | Growth inhibition (Leishmania donovani)
1 | > 100 µg/mL | > 100 µg/mL | > 100 µg/mL | > 100 µg/mL | > 100 µg/mL | CCOC(=O)c1sc(SC)c(C(=O)OCC)c1O | 63%
2 | > 100 µg/mL | > 100 µg/mL | > 100 µg/mL | > 100 µg/mL | > 100 µg/mL | CCOC(=O)c1sc2cc(-c3cccc([N+](=O)[O-])c3)oc(=O)c2c1N | 28%
3 | > 100 µg/mL | > 100 µg/mL | > 100 µg/mL | > 100 µg/mL | > 100 µg/mL | CCOC(=O)c1sc2cc(-c3ccc(Cl)cc3)oc(=O)c2c1N | 24%
4 | > 100 µg/mL | > 100 µg/mL | > 100 µg/mL | > 100 µg/mL | 50 µg/mL (≈ 152 µM) | CSc1cc(-c2ccc(Br)cc2)c(C(=O)O)s1 | 100%
5 | > 100 µg/mL | > 100 µg/mL | > 100 µg/mL | > 100 µg/mL | > 100 µg/mL | CCOC(=O)c1sc(SC)cc1-c1ccc(Br)cc1 | 20%
6 | 50 µg/mL (≈ 179 µM) | 25 µg/mL (≈ 89.5 µM) | 50 µg/mL (≈ 179 µM) | 25 µg/mL (≈ 89.5 µM) | 25 µg/mL (≈ 89.5 µM) | CCOC(=O)c1sc(SC)cc1-c1cccnc1 | 25%
7 | > 100 µg/mL | > 100 µg/mL | > 100 µg/mL | > 100 µg/mL | > 100 µg/mL | CCOC(=O)c1sc(SC)cc1-c1ccccc1 | 30%
8 | > 100 µg/mL | > 100 µg/mL | > 100 µg/mL | > 100 µg/mL | > 100 µg/mL | CCOC(=O)c1sc2cc(-c3cccnc3)oc(=O)c2c1N | 15%
9 | > 100 µg/mL | > 100 µg/mL | > 100 µg/mL | > 100 µg/mL | > 100 µg/mL | CCOC(=O)c1sc2cc(-c3cc(F)c(Cl)cc3Cl)oc(=O)c2c1N | 70%
10 | > 100 µg/mL | > 100 µg/mL | > 100 µg/mL | > 100 µg/mL | > 100 µg/mL | CSc1cc(-c2ccc(Cl)cc2)c(C(=O)O)s1 | 30%
11 | > 100 µg/mL | > 100 µg/mL | > 100 µg/mL | > 100 µg/mL | > 100 µg/mL | CCOC(=O)c1sc(SC)cc1-c1ccc(F)cc1 | 95%
12 | > 100 µg/mL | > 100 µg/mL | > 100 µg/mL | > 100 µg/mL | > 100 µg/mL | CCOC(=O)c1sc2cc(-c3ccc([N+](=O)[O-])cc3)oc(=O)c2c1N | 20%
13 | > 100 µg/mL | > 100 µg/mL | > 100 µg/mL | > 100 µg/mL | > 100 µg/mL | CCOC(=O)c1sc(SC)c(C#N)c1N | 25%
14 | > 100 µg/mL | > 100 µg/mL | > 100 µg/mL | > 100 µg/mL | > 100 µg/mL | CCOC(=O)c1sc2cc(-c3ccc(F)cc3)oc(=O)c2c1N | 30%
15 | > 100 µg/mL | > 100 µg/mL | > 100 µg/mL | > 100 µg/mL | > 100 µg/mL | CSc1cc(-c2cccnc2)c(C(=O)O)s1 | 25%
16 | > 100 µg/mL | > 100 µg/mL | > 100 µg/mL | > 100 µg/mL | > 100 µg/mL | CCOC(=O)c1sc(SC)cc1-c1ccc(C)cc1 | 100%
17 | > 100 µg/mL | > 100 µg/mL | > 100 µg/mL | > 100 µg/mL | > 100 µg/mL | CCOC(=O)c1sc2cc(-c3ccc(Br)cc3)oc(=O)c2c1N | 8%
18 | > 100 µg/mL | > 100 µg/mL | > 100 µg/mL | > 100 µg/mL | > 100 µg/mL | CCOC(=O)c1sc(SC)cc1-c1ccc(Cl)cc1 | 55%
19 | > 100 µg/mL | > 100 µg/mL | > 100 µg/mL | > 100 µg/mL | > 100 µg/mL | CSc1cc(-c2ccc(C)cc2)c(C(=O)O)s1 | 10%
20 | > 100 µg/mL | > 100 µg/mL | > 100 µg/mL | > 100 µg/mL | > 100 µg/mL | CCOC(=O)c1sc2cc(-c3ccc(OC)cc3)oc(=O)c2c1N | 10%
21 | > 100 µg/mL | > 100 µg/mL | > 100 µg/mL | > 100 µg/mL | 50 µg/mL (≈ 186 µM) | CSc1cc(-c2ccc(F)cc2)c(C(=O)O)s1 | 40%
22 | 25 µg/mL (≈ 90.5 µM) | 50 µg/mL (≈ 181 µM) | 12.5 µg/mL (≈ 45.2 µM) | 12.5 µg/mL (≈ 45.2 µM) | 6.25 µg/mL (≈ 22.6 µM) | CCOC(=O)c1sc(SC)c(C(=O)OC)c1O | 95%
23 | > 100 µg/mL | > 100 µg/mL | > 100 µg/mL | > 100 µg/mL | 50 µg/mL (≈ 206 µM) | CCOC(=O)c1sc(SC)c(C#N)c1O | 60%
24 | – | – | – | – | – | N=C(N)c1ccc(OCCCCCOc2ccc(C(=N)N)cc2)cc1 [PENTAMIDINE] | 100%

Row | SMILES | MIC (Aspergillus fumigatus) | MIC (Candida albicans) | MIC (Cryptococcus neoformans) | MIC (Sporothrix schenckii) | MIC (Trichophyton benhamiae) | Growth inhibition (Leishmania donovani)
25 | CC(=O)N1CCN(c2ccc(OC[C@H]3CO[C@](Cn4ccnc4)(c4ccc(Cl)cc4Cl)O3)cc2)CC1 [KETOCONAZOLE] | 0.7 µg/mL (≈ 1.32 µM) | 0.1 µg/mL (≈ 0.188 µM) | 0.3 µg/mL (≈ 0.565 µM) | 0.1 µg/mL (≈ 0.188 µM) | 25 µg/mL (≈ 47 µM) | –
